Results published in patent publication US20100255580A1, “Differentiation of Human Embryonic Stem Cells” (LIFESCCAN, INC., priority 2007, published 2010).
“And” between values parts separate entries of the source, which are not always exact repeats. Equal values may be shown once.

Experiments:
[1] = test system: human embryonic stem cell line H9; assay: Cytokine array analysis of cell lysates and conditioned media; assay type: cell-based; parameters: key to BMP-4 expression / BMP-6 expression / EGF expression / FGF-6 expression / Fractalkine expression / GCP-2 expression / IL-3 expression / IL-4 expression / IL-6 expression / M-CSF expression / MIG expression / Amphiregulin expression: cytokine array signal, normalized and background-subtracted
Experimental: The effect that Wnt-3a treatment has on cytokine expression was analyzed using a protein array. Cells of the human embryonic stem cell line H9 were cultured according to the methods described in Example 15. At passage 54, cells were differentiated in the presence of 100 ng/ml ActivinA+/−10 ng/ml Wnt3a for 2 days in 0.5% FBS DMEM/F12. Cells were subsequently cultured for an additional three days in 100 ng/mlActivin A and 2% FBS DMEM/F12. At the end of the 5th day, CXCR4 expression was determined by FACS for each treatment group.
Cell lysates were prepared from cells of each treatment group, with a mammalian cell lysis kit (Sigma-Aldrich, MO). Conditioned media from each treatment group was collected and concentrated. Cytokine array analysis was completed using Cytokine Array panels provided by RayBiotech, GA (http://www.raybiotech.com/). Table VII lists cytokine, growth factor, and receptor expression following normalization of the data and background subtraction. For each panel, positive and negative controls are also included. Th data shown are two independent samples per cell treatment group (1,2).

[2] = test system: human embryonic stem cell line H9; assay: Immunocytochemistry of endoderm markers, H9; assay type: cell-based; conditions: activin A for five days
Source text: The level of expression of definitive endoderm markers was examined by PCR (FIG. 1), FACS (results summarized in Table II), and immunohistochemistry (FIG. 2).
Cells were harvested at the time points indicated in FIG. 3 and assayed by PCR for the expression of genes shown (FIGS. 3, 4 and 5).

H9P44 cells = assay: RT-PCR of definitive endoderm markers, growth factor combinations in low serum on MEFs (Example 22); assay type: cell-based, human; conditions: H9P44 on MEF; Day 3; normalized to Group 1 (control)
Experimental: Real-time PCR amplification and quantitative analysis.
Final data were expressed relative to a calibrator sample.
H9P44 cells were plated onto 6 well plates previously coated with mitomycin treated mouse embryonic fibroblasts (MEF). Cells were grown until 70 to 80% confluency in ES cell medium consisting of DMEM/F12 (Invitrogen/GIBCO) supplemented with 20% knockout serum replacement, 100 nM MEM nonessential amino acids, 0.5 mM beta-mercaptoethanol, 2 mM L-glutamine (all from Invitrogen/GIBCO) and 8 ng/ml human basic fibroblast growth factor (bFGF) (R&D Systems).
Growth factors were added to increasing concentration of FBS in a stepwise manner as indicated in the following regimen: • Day 0: 0% FBS in DMEM/F12 • Day 1: 0.5% FBS in DMEM/F12 • Day 2: 2% FBS in DMEM/F12. • Day 3: Cells were harvested for FACS analysis and RT-PCR.
All growth factors were purchased from R&D Systems, MN. A detailed description and concentration of growth factors for each treatment group is shown below.
For RT-PCR analysis, cells were analyzed for expression of selected panel of definitive endoderm markers.

What does the source list for “Activin A: a member of the TGFβ superfamily; R&D Systems; Group 2 = Activin A (100 ng/ml)”?
1L-1beta expression ([1]; Cell conditioned media): 117.99 and 75.93; 1L-1ra expression ([1]; Cell conditioned media): 142.34 and 93.74; Acrp30 expression ([1]; Cell conditioned media): 1,797.52 and 1,319.88; AgRP expression ([1]; Cell conditioned media): 378.17 and 195.90; Amphiregulin expression ([1]; Cell conditioned media): 250.52 and 151.01; Angiogenin expression ([1]; Cell conditioned media): 13,726.35 and 11,749.55; Angiopoietin-2 expression ([1]; Cell conditioned media): 655.82 and 632.60; AxI expression ([1]; Cell conditioned media): 401.31 and 324.05; BDNF expression ([1]; Cell conditioned media): 689.22 and 563.39; BMP-4 expression ([1]; Cell conditioned media): 583.40 and 541.83; BMP-6 expression ([1]; Cell conditioned media): 354.91 and 355.28; CK beta 8-1 expression ([1]; Cell conditioned media): 17.79 and 25.31; CNTF expression ([1]; Cell conditioned media): 282.81 and 211.86; EGF expression ([1]; Cell conditioned media): 1,681.85 and 1,406.12; Eotaxin expression ([1]; Cell conditioned media): 207.89 and 199.67; Eotaxin-2 expression ([1]; Cell conditioned media): 890.56 and 744.31; Eotaxin-3 expression ([1]; Cell conditioned media): 975.77 and 665.56; FGF-7 expression ([1]; Cell conditioned media): 449.49 and 352.47; Flt-3 Ligand expression ([1]; Cell conditioned media): 315.58 and 277.47; Fractalkine expression ([1]; Cell conditioned media): 120.80 and 145.30; GCP-2 expression ([1]; Cell conditioned media): 203.21 and 166.86; GDNF expression ([1]; Cell conditioned media): 176.99 and 194.98; GM-CSF expression ([1]; Cell conditioned media): 777.25 and 722.75; IFN-gamma expression ([1]; Cell conditioned media): 283.74 and 559.64; IGF-I expression ([1]; Cell conditioned media): 88.96 and 148.11; IGFBP-1 expression ([1]; Cell conditioned media): 33.71 and 24.37; IGFBP-2 expression ([1]; Cell conditioned media): 27,656.85 and 28,473.95; IGFBP-4 expression ([1]; Cell conditioned media): 10,091.09 and 6,029.45; IL-1alpha expression ([1]; Cell conditioned media): 10,155.70 and 5,842.90; IL-2 expression ([1]; Cell conditioned media): 188.22 and 363.72; IL-3 expression ([1]; Cell conditioned media): 4,598.86 and 5,260.77; IL-4 expression ([1]; Cell conditioned media): 357.72 and 239.04; IL-6 expression ([1]; Cell conditioned media): 7,377.28 and 9,527.88; IL-7 expression ([1]; Cell conditioned media): 456.98 and 430.27; IL-10 expression ([1]; Cell conditioned media): 722.93 and 564.32; IL-16 expression ([1]; Cell conditioned media): 259.39 and 214.67; LIGHT expression ([1]; Cell conditioned media): 619.92 and 453.71; Leptin expression ([1]; Cell conditioned media): 2,999.42 and 2,016.38; M-CSF expression ([1]; Cell conditioned media): 529.09 and 269.04; MCP-1 expression ([1]; Cell conditioned media): 572.17 and 500.58; MCP-4 expression ([1]; Cell conditioned media): 123.61 and 61.87; MIG expression ([1]; Cell conditioned media): 272.50 and 486.52; NAP-2 expression ([1]; Cell conditioned media): 97.39 and 110.61; NT-3 expression ([1]; Cell conditioned media): 97.39 and 171.55; PDGF-BB expression ([1]; Cell conditioned media): 4,729.96 and 8,521.09; RANTES expression ([1]; Cell conditioned media): 393.31 and 347.78; SCF expression ([1]; Cell conditioned media): 691.09 and 487.46; TGF-beta 1 expression ([1]; Cell conditioned media): 752.90 and 740.56; TGF-beta 3 expression ([1]; Cell conditioned media): 111.44 and 115.30; TNF-beta expression ([1]; Cell conditioned media): 675.17 and 671.19; bFGF expression ([1]; Cell conditioned media): 7,948.03 and 4,993.83; 1L-1beta expression ([1]; Cell lysate): 1.00 and 1.13; 1L-1ra expression ([1]; Cell lysate): 33.00 and 25.91; Amphiregulin expression ([1]; Cell lysate): 17.50 and 15.44; AxI expression ([1]; Cell lysate): 637.50 and 795.83; BDNF expression ([1]; Cell lysate): 167.50 and 167.82; BMP-4 expression ([1]; Cell lysate): 247.00 and 273.70; CK beta 8-1 expression ([1]; Cell lysate): 1.00 and 1.13; Eotaxin-2 expression ([1]; Cell lysate): 262.00 and 336.77; Eotaxin-3 expression ([1]; Cell lysate): 184.50 and 284.96; FGF-6 expression ([1]; Cell lysate): 629.00 and 379.57; GM-CSF expression ([1]; Cell lysate): 433.00 and 636.37; I-309 expression ([1]; Cell lysate): 152.50 and 246.10; IFN-gamma expression ([1]; Cell lysate): 349.00 and 441.52; IGFBP-2 expression ([1]; Cell lysate): 3,785.50 and 5,554.45; IGFBP-4 expression ([1]; Cell lysate): 5,553.00 and 6,043.27; IL-1alpha expression ([1]; Cell lysate): 1,236.00 and 1,216.99; IL-5 expression ([1]; Cell lysate): 400.50 and 555.84; IL-6 expression ([1]; Cell lysate): 828.50 and 516.98; IL-7 expression ([1]; Cell lysate): 190.00 and 313.12; IL-13 expression ([1]; Cell lysate): 428.50 and 555.84; IL-15 expression ([1]; Cell lysate): 599.50 and 808.13; Leptin expression ([1]; Cell lysate): 900.50 and 617.79; MCP-1 expression ([1]; Cell lysate): 242.50 and 282.71; MIG expression ([1]; Cell lysate): 291.00 and 226.39; MIP-1-delta expression ([1]; Cell lysate): 1.50 and 1.13; NT-3 expression ([1]; Cell lysate): 1.00 and 1.13; SCF expression ([1]; Cell lysate): 74.50 and 148.67; TGF-beta 1 expression ([1]; Cell lysate): 362.00 and 230.33; TNF-alpha expression ([1]; Cell lysate): 431.00 and 579.49; TNF-beta expression ([1]; Cell lysate): 241.00 and 342.40; bFGF expression ([1]; Cell lysate): 59,820.50 and 54,057.29; cells positive for Sox17 and HNF-3beta (immunocytochemistry) [2]: 30-40%; differentiated cells still Oct4 positive (immunocytochemistry) [2]: ~100%; CXCR4 relative expression (H9P44 cells): 19.5; Goosecoid relative expression (H9P44 cells): 2.8; HNF-3B relative expression (H9P44 cells): 0.64; Oct-4 relative expression (H9P44 cells): 1.1; SOX-2 relative expression (H9P44 cells): 0.91; Sox17 relative expression (H9P44 cells): 45
